Results: patent US20240279603A1, “METHODS OF PROCESSING ADULT NEURAL CELLS FROM MAMMALS AND ASSAYS THEREOF” (THE TEXAS A&M UNIVERSITY SYSTEM, priority 2021, published 2024)

Test system: primary cortical neurons
Test: Analysis of neurite outgrowth and survival of cultured adult cortical neurons (TUBB3/DAPI high-content imaging)
Type: cell-based, mouse
Conditions: for average neurite length vs Vehicle / number of valid neurons vs Vehicle / total neurite outgrowth vs Vehicle: 150 nM 7-epi Paclitaxel; for average neurite length vs Vehicle / number of valid neurons vs Vehicle / total neurite outgrowth vs Vehicle / overall screening result: 3DIV; for overall screening result: 7-epi Paclitaxel
Description: The instant example provides an exemplary protocol, method, and application of processing and screening using adult cortical neurons obtained from adult mice. In particular, the instant example used young adult and middle-aged male and female wild-type C57Bl/6 mice in which the young adult group comprised mice of 4-9 weeks of age and the middle-age group comprised mice of 40-48 weeks of age.
Approximately 20 μL of 50 μg/mL Poly-D-Lysine (PDL, Sigma Aldrich, A-003-M) was added onto the wells of 384-well glass bottom (Brooks Life Sciences, MGB101-1-2-LG-L) or plastic bottom (Greiner-Bio, 781091) plates and incubated inside a 5% CO2 incubator at 37° C. for 48 hours. After incubation, the wells of the plates were washed 5 times with H2O and set to dry overnight at room temperature and were used within 24 hours after drying.
Mice were euthanized and their brains were extracted and placed in cold Hank's balanced salt solution (HBSS) followed by microdissection of the cortex. Up to 1.25 grams of cortical tissue were placed in gentleMACS™ C tubes (Miltenyi Biotec, #130-093-237), where each tube contained 5 mL of 0.3 mg/mL papain (Worthington, LS003126) diluted in HBSS.
The gentleMACS™ C tubes were placed on the gentleMACS™ Octo Dissociator with heaters (Miltenyi Biotec, #130-096-427) with heating cuffs attached and underwent the gentleMACS Program 37C_ABDK_01 protocol. After protocol completion, the contents of the gentleMACS™ C Tube were strained through a 70 μm cell strainer (Miltenyi Biotec, #130-110-916) placed on top of a 15 mL conical centrifuge tube. Then, 7 mL of cold Dulbecco's Phosphate-Buffered Saline with glucose and pyruvate (DPBS, Thermo Fisher Scientific, 14287072) was added into each of the 15 mL conical centrifuge tubes on top of the strained cells. The 15 mL tubes were centrifuged at 300×g for 10 minutes at 4° C. before aspirating the supernatant completely.
Debris removal solution was made by adding 1800 μL of Debris Removal Concentrate (Miltenyi Biotec, #130-109-398) to 6200 μL of cold DPBS. The remaining pellet inside the 15 mL tubes was resuspended with 8 mL of Debris Removal Solution. Very slowly, 4 mL of cold DPBS was dispensed on top of the debris removal solution and cell mixture in each 15 mL tube forming a clear layer on top. The 15 mL tubes were centrifuged at 3000×g for 10 minutes at 4° C. with slow acceleration and deceleration. The top clear and middle debris layers were aspirated leaving the milky mixture beneath the debris layer untouched. 6 mL of DPBS was added onto the milky mixture and mixed gently before centrifuging at 300×g for 5 minutes at 4° C. All supernatant was aspirated afterwards.
Red Blood Cell Remover Solution was made by mixing 125 μL of Red Blood Cell Lysis Solution 10× (Miltenyi Biotec, #130-094-183) with 1125 μL of H2O. The remaining pellet was resuspended in 1.25 mL of Red Blood Cell Remover Solution and incubated for 10 minutes at 4° C. before the addition of 12 mL of 0.5% bovine serum albumin (BSA, Miltenyi Biotec, #130-091-376) diluted in DPBS. The mixture was centrifuged at 300×g for 5 minutes at 4° C. with the supernatant aspirated completely afterwards. The remaining pellet was resuspended in 80 μL of 0.5% BSA and 20 μL of Non-Neuronal Cells Biotin-Antibody Cocktail (Miltenyi Biotec, #130-115-389) and incubated for 5 minutes at 4° C. Cells were washed by adding 2 mL of 0.5% BSA followed by centrifugation at 300×g for 5 minutes at 4° C. followed by aspiration of the supernatant. The remaining pellet was resuspended in 80 μL of 0.5% BSA and 20 μL of Anti-Biotin MicroBeads (Miltenyi Biotec, #130-115-389) and incubated for 10 minutes at 4° C.
After the addition of 6 mL 0.5% BSA, the mixture was flowed through 0.5% BSA primed LS columns (Miltenyi Biotec, #130-042-401). The negative fraction containing the majority of neurons was collected and centrifuged at 300×g for 5 minutes at 4° C. and resuspended in neuron media. […]

[1] = 5 μM (S)-H-1152 vs Vehicle (0.05% DMSO), young adult male mice, 2DIV, 10,000 cells plated per well, two-way ANOVA
[2] = young adult male mice, 2DIV, relative to 0% DMSO
[3] = young adult male mice, 2DIV, PDL coated wells, laminin coating 10 μg/mL

CC(=O)O[C@H]1C(=O)[C@]2(C)[C@H](O)C[C@H]3OC[C@@]3(OC(C)=O)[C@H]2[C@H](OC(=O)c2ccccc2)[C@]2(O)C[C@H](OC(=O)[C@H](O)[C@@H](NC(=O)c3ccccc3)c3ccccc3)C(C)=C1C2(C)C [7-epi Paclitaxel]
average neurite length vs Vehicle (middle-aged male cohort): significantly increased
number of valid neurons vs Vehicle (middle-aged male cohort): without affecting
total neurite outgrowth vs Vehicle (middle-aged male cohort): without affecting
average neurite length vs Vehicle (young adult female cohort): significantly increased
number of valid neurons vs Vehicle (young adult female cohort): significantly decreased
total neurite outgrowth vs Vehicle (young adult female cohort): significantly decreased
average neurite length vs Vehicle (young adult male cohort): significantly increased
number of valid neurons vs Vehicle (young adult male cohort): significantly decreased
total neurite outgrowth vs Vehicle (young adult male cohort): significantly decreased
overall screening result (middle-aged male neurons): overall positive result
overall screening result (young adult neurons): overall negative result

Cc1cncc2cccc(S(=O)(=O)N3CCCNC[C@@H]3C)c12 [(S)-H-1152]
average neurite length [1]: significantly increased
number of valid neurons [1]: significantly increased
slope of the total neurite outgrowth linear regression line against cell plating density (5 μM (S)-H-1152 vs Vehicle, young adult male mice, 2DIV, 1,500-15,000 cells per well): steeper increase

C[S+](C)[O-] [DMSO, Dimethyl sulfoxide]
correlation between average neurite length and % DMSO in the media (linear regression) [2]: significant negative correlation
correlation between number of valid neurons per well and % DMSO in the media (linear regression) [2]: significant negative correlation
correlation between total neurite outgrowth and % DMSO in the media (linear regression) [2]: significant negative correlation

laminin
average neurite length, change relative to the control group (no B27+ supplement or laminin coating) [3]: did not induce a significant changes
number of valid neurons, change relative to the control group (no B27+ supplement or laminin coating) [3]: did not induce a significant changes
total neurite outgrowth, change relative to the control group (no B27+ supplement or laminin coating) [3]: did not induce a significant changes
